Measured values published in patent US7714014B2, “Targeting GLI proteins in human cancer by small molecules” (The Regents of the University of California, priority 2005, dated 2010).

Legend:
[1] = system: GLI1- and GLI2-induced transcription in Panc4.21 pancreatic cancer cells; assay: 6xGLI BS-luciferase reporter assay; format: cell-based, human; conditions: for 6xGLI BS-luciferase activity (TAFII31 co-transfected with GLI1 or GLI2): Panc4.21, 20 μM for 16-20 hours; for 6xGLI BS-luciferase activity (GLI1- or GLI2-induced): Panc4.21, 20 μM, 16-20 hours
Procedure: One day before transfection, cells (1×10^5) were plated in 12-well plates with growth medium without antibiotics. When cells reached 80-90% of confluence they were co-transfected using 0.5 μg of each promoter construct in pGL3Basic vector and 0.025 μg pRL-TK Vector (Promega; Madison, Wis.) containing Renilla Luciferase as an internal control for the transformation efficiency. Lipofectamine 2000™ (Invitrogen Life Technologies) was used to mediate transfection for about 6 hours. […] Briefly, cells were lysed in a lysis buffer and Firefly and Renilla Luciferase activities in cells of each well, were measured using Dual-Luciferase Assay System (Promega) and an illuminometer. The measured luciferase activities were normalized to pRL-TK Vector activity and were given relative to the basal activity of empty pGL3-Basic Vector, which was set to unity. The data shown represent mean values (±S.D.). All measurements were performed in triplicate and repeated in at least three independent experiments. The human Wnt-2 promoter-luciferase construct, the human SOCS3 promoter-Luciferase construct and the human Gremlin promoter-luciferase construct were cloned and characterized in the laboratory of Dr. Jablons at the University of California, San Francisco (San Francisco, Calif.; He et al., Biochem Biophy Res Comm, 2003; and unpublished data). The 6GLI-TKO-luciferase construct (containing 6 repeats of consensus GLI DNA binding sequence) was kindly provided by Dr. Matthias Hebrok's laboratory at the University of California, San Francisco (San Francisco, Calif.).
To further examine the specificity of the small molecule compounds FN1-5 and FN1-8 to inhibit Hh/Gli signaling pathways, GLI-dependent transcription in the absence and presence of these compounds was also determined in pancreatic cancer cells.
This finding also provides a method for inhibiting GLI1- and GLI2-dependent transcription in a cell.
The TAFII31 expression plasmid contained the full-length TAFII31 cDNA generated by PCR cloned into the EcoRI (5′) and BamHI (3′) sites of a mammalian expression vector containing a c-Myc tag (pCDNA3.1 (−)B. The sequence of TAFII31 corresponds to GenBank Accession No. U25112.

[2] = system: hedgehog pathway in HT29 cells; assay: Semi-quantitative RT-PCR of Hedgehog pathway genes; format: cell-based, human; conditions: data not shown
Procedure: Total RNA from cell lines or tissue samples was isolated using Qiagen RNeasy Mini Kit (Valencia, Calif.). RT-PCR was performed in GeneAmp PCR system 2700 (Applied Biosystems, Foster City, Calif.) using One-step RT-PCR Kit from Invitrogen Life Technologies (Carlsbad, Calif.). Primers for RT-PCR were obtained from Operon Technologies Inc. (Alameda, Calif.). Primer sequences for amplifying different genes in Hedgehog and Wnt signaling pathways are listed in the table below (Table 1; F, forward primer; R, reverse primer). The expected size of the PCR product is indicated for each primer pair. GAPDH was used as internal control.

[3] = system: human Wnt2 promoter in NSCLC cell line A549; assay: Wnt2 promoter-luciferase reporter assay; format: cell-based; conditions: for Wnt2 promoter activity: A549, 30 μM, 18-24 hours
Procedure: One day before transfection, cells (1×10^5) were plated in 12-well plates with growth medium without antibiotics. When cells reached 80-90% of confluence they were co-transfected using 0.5 μg of each promoter construct in pGL3Basic vector and 0.025 μg pRL-TK Vector (Promega; Madison, Wis.) containing Renilla Luciferase as an internal control for the transformation efficiency. Lipofectamine 2000™ (Invitrogen Life Technologies) was used to mediate transfection for about 6 hours. Then the medium was replaced with fresh medium containing various small molecule compounds at a concentration of 30 μM, and the resulting cells were cultured for an additional 18-24 hours and subjected to luciferase assay. Briefly, cells were lysed in a lysis buffer and Firefly and Renilla Luciferase activities in cells of each well, were measured using Dual-Luciferase Assay System (Promega) and an illuminometer. The measured luciferase activities were normalized to pRL-TK Vector activity and were given relative to the basal activity of empty pGL3-Basic Vector, which was set to unity. The data shown represent mean values (±S.D.). All measurements were performed in triplicate and repeated in at least three independent experiments. The human Wnt-2 promoter-luciferase construct, the human SOCS3 promoter-Luciferase construct and the human Gremlin promoter-luciferase construct were cloned and characterized in the laboratory of Dr. Jablons at the University of California, San Francisco (San Francisco, Calif.; He et al., Biochem Biophy Res Comm, 2003; and unpublished data). The 6GLI-TKO-luciferase construct (containing 6 repeats of consensus GLI DNA binding sequence) was kindly provided by Dr. Matthias Hebrok's laboratory at the University of California, San Francisco (San Francisco, Calif.).
To examine the specificity of the small molecule compounds of the invention, the compounds were tested for regulate the expression of Gli down-stream target genes. […] The human Wnt2 promoter was cloned and found to contain putative Gli-DNA binding sites within its promoter region (data not shown). […]

[4] = system: normal human muscle cells; assay: Cell survival assay (crystal violet); format: cell-based; conditions: 1, 10, 30, and 50 μM, 3 days
Procedure: Typically, the small molecule compounds of the present invention were dissolved in DMSO at a concentration of 30 mM. The small molecule compounds were then tested under cell culture conditions at different concentrations ranging from 0, 10, 30, 50, to 100 uM. To determine cell survival after treatment, the cells were incubated with the small molecule compounds in 6-well plates for about 3 days. After removal of the cell culture medium, 1-ml of 0.5% crystal violet solution (prepared in 20% ethanol and 20% methanol) was added to stain the cells for 5 min. Then the crystal violet solution was rinsed clean with tap water. Cell survival was estimated based on the density of crystal stained plates.
The cell killing effect of small molecule compounds FN1-8, FN1-7, and FN1-5 at different doses was examined in normal human muscle cells. […] Normal muscle cells were plated in 6-well plates and incubated with 1, 10, 30, and 50 μM of each compound for 3 days, in the same manner as described herein for similar other experiments. […] Both FN1-5 and FN1-8 seem to be specific in killing cancer cells.

Compound | 6xGLI BS-luciferase activity (TAFII31 co-transfected with GLI1 or GLI2) [1] | 6xGLI BS-luciferase activity (GLI1- or GLI2-induced) [1] | modulation of hedgehog pathway (RT-PCR) [2] | Wnt2 promoter activity [3] | cell killing effect in normal cells [4] | Wnt2 expression (Wnt2 promoter-luciferase reporter activity assay) ([3]; after FN1-8 treatment, data not shown)
O=C(NCCCCCO)C1C(c2ccccc2)=NN(c2ccccc2)C1c1ccccc1 (centres unmarked) [FN1-5, N-(5-Hydroxypentyl)-1,3,5-triphenyl-4,5-dihydro-pyrazole-4-carboxyamide] | significantly reduced | significantly reduced level of luciferase activity | no noticeable changes | down-regulate Wnt2 promoter activity dramatically | No noticeable cell killing effect | –
O=C(NCCc1ccc(O)cc1)C1C(c2ccccc2)=NN(c2ccccc2)C1c1ccccc1 (centres unmarked) [FN1-8, N-(2-(4-Hydroxyphenyl)ethyl)-1,3,5-triphenyl-4,5-dihydro-pyrazole-4-carboxyamide] | significantly reduced | significantly reduced level of luciferase activity | no noticeable changes | down-regulate Wnt2 promoter activity dramatically | No noticeable cell killing effect | down-regulated
